From PubChem BioAssay AID248 (DTP/NCI, 2004)
Several values for one entry are separate records, joined by “and”; a condition that tells them apart may be missing. Identical values can stand only once. Inconclusive results and toxic doses are left out. No stated cut-off is given here; in the data, active means T/C of 150% or more; inactive means T/C below 125%.

System: L1210 leukemia ip in BDF1 mice, survival T/C
Test: NCI In Vivo Anticancer Drug Screen. Data for tumor model L1210 Leukemia (intraperitoneal) in B6D2F1 (BDF1) mice
Settings: endpoint: mean survival time, higher = longer survival
Procedure, shortened: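 Read-out is survival time, reported as the treated-group measurement over the vehicle-control measurement.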

[1] = dose: 25.0 mg/kg/injection, schedule: Q04DX003 (ip), vehicle: saline
[2] = dose: 100.0 mg/kg/injection, schedule: Q04DX003 (ip), vehicle: saline
[3] = dose: 75.0 mg/kg/injection, schedule: Q01DX001 (ip), vehicle: saline
[4] = dose: 100.0 mg/kg/injection, schedule: Q01DX001 (ip), vehicle: saline
[5] = dose: 200.0 mg/kg/injection, schedule: Q01DX001 (ip), vehicle: saline
[6] = dose: 400.0 mg/kg/injection, schedule: Q01DX001 (ip), vehicle: saline
[7] = dose: 100.0 mg/kg/injection, schedule: Q01DX001 (ip), vehicle: carboxymethylcellulose (CMC)
[8] = dose: 200.0 mg/kg/injection, schedule: Q01DX001 (ip), vehicle: carboxymethylcellulose (CMC)
[9] = dose: 400.0 mg/kg/injection, schedule: Q01DX001 (ip), vehicle: carboxymethylcellulose (CMC)

Measured: T/C

Cc1cc(C)c(C(=O)CCN(C)C)c(C)c1
inactive: dose: 25.0 mg/kg/injection, schedule: Q01DX009 (ip), vehicle: saline 103 % of control | [1] 93 % of control | dose: 50.0 mg/kg/injection, schedule: Q01DX009 (ip), vehicle: saline 96 % of control | dose: 50.0 mg/kg/injection, schedule: Q04DX003 (ip), vehicle: saline 96 % of control | [2] 93 % of control and 104 % of control

CCCCCCCCC(=O)C[N+](=O)[O-]
inactive: dose: 18.8 mg/kg/injection, schedule: Q01DX009 (ip), vehicle: saline 97 % of control | dose: 18.8 mg/kg/injection, schedule: Q04DX003 (ip), vehicle: saline 106 % of control | dose: 37.5 mg/kg/injection, schedule: Q01DX009 (ip), vehicle: saline 95 % of control | dose: 37.5 mg/kg/injection, schedule: Q04DX003 (ip), vehicle: saline 95 % of control | [3] 93 % of control | dose: 75.0 mg/kg/injection, schedule: Q01DX009 (ip), vehicle: saline 99 % of control | dose: 75.0 mg/kg/injection, schedule: Q04DX003 (ip), vehicle: saline 95 % of control

C[n+]1ccc(/C=C/Nc2cccc(N)n2)cc1
inactive: [3] 96 % of control | dose: 150.0 mg/kg/injection, schedule: Q01DX001 (ip), vehicle: saline 102 % of control

ClC(Cc1ccccc1)c1ccccc1 (configuration not stated)
inactive: dose: 50.0 mg/kg/injection, schedule: Q01DX001 (ip), vehicle: saline 97 % of control | [4] 97 % of control | [5] 97 % of control | [6] 97 % of control

CC1C=CCC(C)(C)C1 (configuration not stated)
inactive: [7] 95 % of control | [8] 100 % of control | dose: 200.0 mg/kg/injection, schedule: Q01DX009 (ip), vehicle: carboxymethylcellulose (CMC) 94 % of control | [9] 114 % of control | dose: 400.0 mg/kg/injection, schedule: Q01DX009 (ip), vehicle: carboxymethylcellulose (CMC) 90 % of control | dose: 600.0 mg/kg/injection, schedule: Q01DX009 (ip), vehicle: carboxymethylcellulose (CMC) 92 % of control

O=C(/C=C/c1ccc2c(c1)OCO2)c1ccc2ccccc2c1
inactive: dose: 100.0 mg/kg/injection, schedule: Q04DX002 (ip), vehicle: gum acacia 103 % of control | dose: 200.0 mg/kg/injection, schedule: Q04DX002 (ip), vehicle: gum acacia 96 % of control | dose: 400.0 mg/kg/injection, schedule: Q04DX002 (ip), vehicle: gum acacia 92 % of control

CC(=O)/C=C(/C(=O)c1ccccc1)c1ccccc1
inactive: dose: 100.0 mg/kg/injection, schedule: Q01DX001 (ip), vehicle: saline with Tween-80 93 % of control | dose: 200.0 mg/kg/injection, schedule: Q01DX001 (ip), vehicle: saline with Tween-80 98 % of control | dose: 400.0 mg/kg/injection, schedule: Q01DX001 (ip), vehicle: saline with Tween-80 97 % of control

CCCCOP(=O)(CCCC)OCCCC
inactive: dose: 12.5 mg/kg/injection, schedule: Q01DX009 (ip), vehicle: saline with Tween-80 103 % of control | dose: 12.5 mg/kg/injection, schedule: Q04DX003 (ip), vehicle: saline with Tween-80 86 % of control | dose: 25.0 mg/kg/injection, schedule: Q01DX009 (ip), vehicle: saline with Tween-80 92 % of control | dose: 25.0 mg/kg/injection, schedule: Q04DX003 (ip), vehicle: saline with Tween-80 104 % of control | dose: 50.0 mg/kg/injection, schedule: Q01DX009 (ip), vehicle: saline with Tween-80 92 % of control | dose: 50.0 mg/kg/injection, schedule: Q04DX003 (ip), vehicle: saline with Tween-80 93 % of control and 94 % of control

NC(CO)C(O)c1ccc(-c2ccccc2)cc1 (configuration not stated)
inactive: dose: 75.0 mg/kg/injection, schedule: Q04DX003 (ip), vehicle: Klucel (hydroxypropylcellulose) (HPC) 108 % of control | dose: 100.0 mg/kg/injection, schedule: Q01DX001 (ip), vehicle: Klucel (hydroxypropylcellulose) (HPC) 94 % of control | dose: 150.0 mg/kg/injection, schedule: Q04DX003 (ip), vehicle: Klucel (hydroxypropylcellulose) (HPC) 106 % of control | dose: 200.0 mg/kg/injection, schedule: Q01DX001 (ip), vehicle: Klucel (hydroxypropylcellulose) (HPC) 92 % of control | dose: 300.0 mg/kg/injection, schedule: Q04DX003 (ip), vehicle: Klucel (hydroxypropylcellulose) (HPC) 101 % of control | dose: 400.0 mg/kg/injection, schedule: Q01DX001 (ip), vehicle: Klucel (hydroxypropylcellulose) (HPC) 92 % of control

CO/C(=C(/C)C(=O)O)c1c(C)cc(C)c(Br)c1C
inactive: dose: 75.0 mg/kg/injection, schedule: Q01DX009 (ip), vehicle: Klucel (hydroxypropylcellulose) (HPC) 98 % of control | dose: 150.0 mg/kg/injection, schedule: Q01DX009 (ip), vehicle: Klucel (hydroxypropylcellulose) (HPC) 95 % of control | dose: 300.0 mg/kg/injection, schedule: Q01DX009 (ip), vehicle: Klucel (hydroxypropylcellulose) (HPC) 109 % of control

O=S(=O)(O)SCCCNc1ncnc2ccccc12
inactive: [7] 107 % of control | [8] 105 % of control | [9] 102 % of control

COC(=O)c1csc(-c2csc(CCN)n2)n1
inactive: [4] 102 % of control | dose: 100.0 mg/kg/injection, schedule: Q01DX009 (ip), vehicle: saline 100 % of control | [2] 95 % of control | [5] 98 % of control | dose: 200.0 mg/kg/injection, schedule: Q01DX009 (ip), vehicle: saline 98 % of control | dose: 200.0 mg/kg/injection, schedule: Q04DX003 (ip), vehicle: saline 98 % of control | [6] 101 % of control | dose: 400.0 mg/kg/injection, schedule: Q01DX009 (ip), vehicle: saline 89 % of control | dose: 400.0 mg/kg/injection, schedule: Q04DX003 (ip), vehicle: saline 103 % of control

CCc1cc(C(C)=O)c(CC)s1
inactive: dose: 100.0 mg/kg/injection, schedule: Q01DX009 (sc), vehicle: olive oil, sesame oil, peanut oil 94 % of control | dose: 100.0 mg/kg/injection, schedule: Q04DX003 (sc), vehicle: olive oil, sesame oil, peanut oil 104 % of control | dose: 200.0 mg/kg/injection, schedule: Q01DX009 (sc), vehicle: olive oil, sesame oil, peanut oil 97 % of control | dose: 200.0 mg/kg/injection, schedule: Q04DX003 (sc), vehicle: olive oil, sesame oil, peanut oil 100 % of control | dose: 400.0 mg/kg/injection, schedule: Q01DX009 (sc), vehicle: olive oil, sesame oil, peanut oil 104 % of control | dose: 400.0 mg/kg/injection, schedule: Q04DX003 (sc), vehicle: olive oil, sesame oil, peanut oil 109 % of control

CC(=O)OCCN1CCN(CC/C=C2\c3ccccc3Sc3ccc(Cl)cc32)CC1
inactive: dose: 2.0 mg/kg/injection, schedule: Q01DX009 (ip), vehicle: saline 100 % of control | dose: 5.0 mg/kg/injection, schedule: Q01DX009 (ip), vehicle: saline 98 % of control and 115 % of control | dose: 10.0 mg/kg/injection, schedule: Q01DX009 (ip), vehicle: saline 102 % of control | dose: 20.0 mg/kg/injection, schedule: Q01DX009 (ip), vehicle: saline 111 % of control | [1] 120 % of control | dose: 40.0 mg/kg/injection, schedule: Q01DX009 (ip), vehicle: saline 117 % of control | [4] 108 % of control | [5] 114 % of control

CCN(CC)C(=O)Nc1ccccc1F
inactive: dose: 100.0 mg/kg/injection, schedule: Q01DX009 (ip), vehicle: Klucel (hydroxypropylcellulose) (HPC) 104 % of control | dose: 200.0 mg/kg/injection, schedule: Q01DX009 (ip), vehicle: Klucel (hydroxypropylcellulose) (HPC) 98 % of control | dose: 400.0 mg/kg/injection, schedule: Q01DX009 (ip), vehicle: Klucel (hydroxypropylcellulose) (HPC) 119 % of control

O=C(C[n+]1cccc(Cl)c1)c1ccccc1
inactive: dose: 0.5 mg/kg/injection, schedule: Q04DX003 (ip), vehicle: saline 113 % of control | dose: 1.0 mg/kg/injection, schedule: Q04DX003 (ip), vehicle: saline 105 % of control | dose: 2.0 mg/kg/injection, schedule: Q04DX003 (ip), vehicle: saline 102 % of control
